Here are results for one compound from ChEMBL document CHEMBL1156642, “Discovery of betamethasone 17alpha-carbamates as dissociated glucocorticoid receptor modulators in the rat” (Bioorg Med Chem, 2008).

The inhibition in vivo is the drop in the measured response relative to a control, in per cent. By IC50 is commonly meant the concentration that inhibits the measured activity by half.

Activity calls are given as the source filed them. The rule behind the calls is not given here.

Test [1] relates to Rattus norvegicus. The experiment in a line: Inhibition of granuloma formation in cotton pellet implanted Lewis rat at 5.0 mg/kg, po bid. It is filed as functional.
The next test addresses T1, Progesterone receptor (Homo sapiens, UniProt P06401).
T1 sequence (P06401 whole entry): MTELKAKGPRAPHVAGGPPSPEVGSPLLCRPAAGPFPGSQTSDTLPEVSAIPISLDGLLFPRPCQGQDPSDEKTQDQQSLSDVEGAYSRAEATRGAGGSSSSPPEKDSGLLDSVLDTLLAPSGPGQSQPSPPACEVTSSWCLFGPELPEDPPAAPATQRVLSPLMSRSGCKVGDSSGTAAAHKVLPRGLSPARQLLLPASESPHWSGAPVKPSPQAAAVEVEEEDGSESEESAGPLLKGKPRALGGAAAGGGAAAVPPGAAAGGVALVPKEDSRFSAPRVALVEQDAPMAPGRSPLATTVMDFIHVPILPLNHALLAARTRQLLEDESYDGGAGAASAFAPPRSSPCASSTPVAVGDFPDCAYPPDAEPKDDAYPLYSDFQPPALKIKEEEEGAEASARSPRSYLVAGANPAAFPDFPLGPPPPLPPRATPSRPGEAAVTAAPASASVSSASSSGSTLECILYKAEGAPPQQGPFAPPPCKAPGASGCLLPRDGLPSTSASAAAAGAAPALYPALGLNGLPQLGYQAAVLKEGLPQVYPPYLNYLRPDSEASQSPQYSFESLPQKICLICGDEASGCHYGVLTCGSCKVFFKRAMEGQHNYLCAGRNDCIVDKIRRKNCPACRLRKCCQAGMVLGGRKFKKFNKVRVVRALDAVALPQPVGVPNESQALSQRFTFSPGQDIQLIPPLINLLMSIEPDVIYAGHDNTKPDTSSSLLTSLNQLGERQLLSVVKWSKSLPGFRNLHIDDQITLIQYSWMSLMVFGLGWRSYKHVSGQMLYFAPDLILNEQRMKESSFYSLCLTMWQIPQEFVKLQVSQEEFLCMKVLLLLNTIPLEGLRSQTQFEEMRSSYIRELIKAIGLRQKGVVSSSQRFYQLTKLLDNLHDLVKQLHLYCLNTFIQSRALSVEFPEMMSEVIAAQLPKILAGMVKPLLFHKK
Briefly: Inhibition of human progesterone receptor.

Test [2] deals with Rattus norvegicus. Briefly: Effect on body weight change in Lewis rat with implanted cotton pellets at 5.0 mg/kg, po bid for 4 days. It is filed as functional.
For test [3], the system named is Rattus norvegicus. The experiment in a line: Effect on body weight change in Lewis rat with implanted cotton pellets at 10 mg/kg, po bid for 4 days. It is filed as functional.
Test [4] concerns Rattus norvegicus. The experiment in a line: Effect on body weight change in Lewis rat with implanted cotton pellets at 19 mg/kg, po bid for 4 days. It is filed as functional.
Test [5] concerns Rattus norvegicus. Briefly: Effect on body weight change in Lewis rat with implanted cotton pellets at 5.0 mg/kg, po bid for 7 days. It is filed as functional.
For test [6], the system named is Rattus norvegicus. Briefly: Effect on body weight change in Lewis rat with implanted cotton pellets at 10 mg/kg, po bid for 7 days. It is filed as functional.
For test [7], the system named is Rattus norvegicus. Briefly: Effect on body weight change in Lewis rat with implanted cotton pellets at 19 mg/kg, po bid for 7 days. It is filed as functional.
The subject of test [8] is Rattus norvegicus. Briefly: Effect on spleen weight in Lewis rat with implanted cotton pellets at 5.0 mg/kg, po bid. It is filed as functional.
Test [9] has as its system Rattus norvegicus. Briefly: Effect on spleen weight in Lewis rat with implanted cotton pellets at 10 mg/kg, po bid. It is filed as functional.
In test [10] the test system is Rattus norvegicus. The experiment in a line: Effect on spleen weight in Lewis rat with implanted cotton pellets at 19 mg/kg, po bid. It is filed as functional.
For test [11], the system named is Rattus norvegicus. Briefly: Effect on thymus weight in Lewis rat with implanted cotton pellets at 5.0 mg/kg, po bid. It is filed as functional.
In test [12] the test system is Rattus norvegicus. Briefly: Effect on thymus weight in Lewis rat with implanted cotton pellets at 10 mg/kg, po bid. It is filed as functional.
The subject of test [13] is Rattus norvegicus. Briefly: Effect on thymus weight in Lewis rat with implanted cotton pellets at 19 mg/kg, po bid. It is filed as functional.
Test [14] relates to Rattus norvegicus. Briefly: Effect on adrenal weight in Lewis rat with implanted cotton pellets at 5.0 mg/kg, po bid. It is filed as functional.
Test [15] deals with Rattus norvegicus. The experiment in a line: Effect on adrenal weight in Lewis rat with implanted cotton pellets at 10 mg/kg, po bid. It is filed as functional.
Test [16] deals with Rattus norvegicus. The experiment in a line: Effect on adrenal weight in Lewis rat with implanted cotton pellets at 19 mg/kg, po bid. It is filed as functional.
Test [17] concerns Rattus norvegicus. The experiment in a line: Effect on plasma glucose level in Lewis rat with implanted cotton pellets at 10 mg/kg, po by oral glucose tolerance test. It is filed as functional, organism-based. More on the design: dose 10 mg/kg.
Test [18] relates to Rattus norvegicus. The experiment in a line: Effect on plasma glucose level in Lewis rat with implanted cotton pellets at 19 mg/kg, po by oral glucose tolerance test. Set-up: dose 19 mg/kg. It is filed as functional, organism-based.
Test [19] has as its system Rattus norvegicus. Briefly: Inhibition of granuloma formation in cotton pellet implanted Lewis rat at 10 mg/kg, po bid. It is filed as functional.
In test [20] the test system is Rattus norvegicus. The experiment in a line: Inhibition of granuloma formation in cotton pellet implanted Lewis rat at 19 mg/kg, po bid. It is filed as functional.
For test [21], the species on record is Rattus norvegicus. The experiment in a line: Transactivation activity of glutamine synthase in rat skeletal muscle cells relative to Dexamethasone. It is filed as cell-based.
In test [22] the target is T2, Interstitial collagenase (Homo sapiens) (UniProt P03956).
T2 sequence (whole entry): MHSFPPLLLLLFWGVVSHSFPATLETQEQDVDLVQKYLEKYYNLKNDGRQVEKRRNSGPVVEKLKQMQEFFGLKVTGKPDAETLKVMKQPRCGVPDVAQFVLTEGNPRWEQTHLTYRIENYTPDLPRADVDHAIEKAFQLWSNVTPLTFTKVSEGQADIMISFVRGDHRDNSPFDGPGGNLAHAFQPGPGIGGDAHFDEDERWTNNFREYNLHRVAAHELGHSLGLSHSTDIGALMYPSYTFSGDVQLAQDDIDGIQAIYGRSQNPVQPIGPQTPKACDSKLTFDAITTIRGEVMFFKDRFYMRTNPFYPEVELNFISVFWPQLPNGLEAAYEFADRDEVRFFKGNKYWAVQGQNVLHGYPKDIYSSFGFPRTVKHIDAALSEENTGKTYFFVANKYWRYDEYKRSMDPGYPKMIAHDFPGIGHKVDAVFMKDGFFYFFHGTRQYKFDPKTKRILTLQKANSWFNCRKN
Briefly: Inhibition of glucocorticoid-mediated human MMP1 expression in PMA stimulated A549 cells assessed as MMP1 protein level by ELISA relative to Dexamethasone. It is filed as cell-based. Set-up: scale not given: the % may be the effect or the level left. (An ELISA detects its analyte on a solid surface through an enzyme-linked reagent.)

The target in the next test is T3, Glucocorticoid receptor (Homo sapiens, UniProt P04150).
T3 sequence (P04150 whole entry): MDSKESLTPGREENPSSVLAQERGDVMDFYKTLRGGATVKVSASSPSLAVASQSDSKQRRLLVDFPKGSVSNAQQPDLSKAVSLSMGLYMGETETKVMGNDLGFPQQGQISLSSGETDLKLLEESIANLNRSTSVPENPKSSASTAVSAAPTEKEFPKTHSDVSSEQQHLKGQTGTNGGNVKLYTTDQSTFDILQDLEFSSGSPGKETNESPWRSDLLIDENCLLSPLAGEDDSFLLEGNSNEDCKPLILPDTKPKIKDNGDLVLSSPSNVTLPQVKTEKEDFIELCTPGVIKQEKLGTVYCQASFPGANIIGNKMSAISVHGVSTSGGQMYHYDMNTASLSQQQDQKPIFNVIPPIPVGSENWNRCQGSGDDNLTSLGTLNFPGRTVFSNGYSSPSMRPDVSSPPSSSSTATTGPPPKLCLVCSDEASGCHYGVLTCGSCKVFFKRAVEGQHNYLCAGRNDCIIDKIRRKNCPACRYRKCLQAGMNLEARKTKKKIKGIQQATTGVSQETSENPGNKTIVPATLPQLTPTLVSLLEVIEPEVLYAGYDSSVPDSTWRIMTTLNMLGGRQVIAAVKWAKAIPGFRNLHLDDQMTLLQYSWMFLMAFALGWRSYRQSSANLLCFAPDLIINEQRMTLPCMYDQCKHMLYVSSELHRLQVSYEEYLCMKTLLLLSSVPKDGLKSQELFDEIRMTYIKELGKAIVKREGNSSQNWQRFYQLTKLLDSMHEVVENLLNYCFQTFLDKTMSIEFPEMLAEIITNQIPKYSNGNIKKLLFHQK

Description for Glucocorticoid receptor: Inhibition of human glucocorticoid receptor

`CCCNC(=O)O[C@]1(C(=O)CO)[C@@H](C)C[C@H]2[C@@H]3CCC4=CC(=O)C=C[C@]4(C)[C@@]3(F)[C@@H](O)C[C@@]21C` had an inhibition in vivo at 5 mg/kg with Rattus norvegicus [1] of 32.7%. Also, the values for the IC50 against Progesterone receptor and against Glucocorticoid receptor were 394 nM and 3.6 nM, respectively. Also, the Activity is 1.1 g with Rattus norvegicus [2]; 3.9 g with Rattus norvegicus [3]; 3.9 g in the test on Rattus norvegicus [4]; 5 g with Rattus norvegicus [5]; 7.1 g with Rattus norvegicus [6]; 6.6 g in the test with Rattus norvegicus [7]. In addition, the Activity in the test with Rattus norvegicus [8] stood at 296.1 mg; in the test with Rattus norvegicus [9], 274.3 mg; in the test with Rattus norvegicus [10] it was 258 mg; in the test with Rattus norvegicus [11], 105.5 mg; in the test on Rattus norvegicus [12], 91.4 mg; in the test on Rattus norvegicus [13], 82.9 mg. For the same compound, the Activity in the test on Rattus norvegicus [14] was found to be 34.7 mg; in the test with Rattus norvegicus [15], 34.6 mg; in the test with Rattus norvegicus [16], 25.6 mg; in the test listed under Rattus norvegicus [21], 34.7%; in test [22], 103%. Further, the outcome in the test with Rattus norvegicus [17] and with Rattus norvegicus [18] was Active. Also, 10 mg/kg produced 40% inhibition in vivo in the test with Rattus norvegicus [19]. For the same compound, the inhibition in vivo at 19 mg/kg in the test on Rattus norvegicus [20] was 51%.
